Source: ChEMBL document CHEMBL1201862, “PubChem BioAssay data set” (2004)
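Step 1: Grow cells in 96-well plates. Step 2: Expose to compound for 48 hours at 5 concentrations. Step 3: Interpolate endpoints linearly; if unreached, use highest concentration. Here, GI50 denotes the concentration required for 50% inhibition of growth.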 The source made the active and inactive calls. No stated cut-off is given here; in the data, active = GI50 up to about 1.1 µM and inactive = higher.

What was measured:
Test in all cases: inhibition of tumour cell growth, NCI panel, 48 h
SK-OV-3 = system: SK-OV-3
A498 = system: A498
UO-31 = system: UO-31
A549 = system: A549
NCI-H23 = system: NCI-H23
LOX IMVI = system: LOX IMVI
MDA-MB-231 = system: MDA-MB-231
SK-MEL-5 = system: SK-MEL-5
OVCAR-5 = system: OVCAR-5
SK-MEL-2 = system: SK-MEL-2
SR = system: SR
Hs-578T = system: Hs-578T
K562 = system: K562
NCI-H460 = system: NCI-H460
CCRF-CEM = system: CCRF-CEM
COLO 205 = system: COLO 205
PC-3 = system: PC-3
SNB-75 = system: SNB-75
HCC 2998 = system: HCC 2998
OVCAR-3 = system: OVCAR-3
MDA-N = system: MDA-N
MOLT-4 = system: MOLT-4
ACHN = system: ACHN
UACC-62 = system: UACC-62
Malme-3M = system: Malme-3M
U-251 = system: U-251
HOP-92 = system: HOP-92
CAKI-1 = system: CAKI-1
EKVX = system: EKVX
HL-60 = system: HL-60
SN12C = system: SN12C
SF-539 = system: SF-539
OVCAR-4 = system: OVCAR-4
UACC-257 = system: UACC-257
RXF 393 = system: RXF 393
M14 = system: M14
IGROV-1 = system: IGROV-1
SF-295 = system: SF-295
786-0 = system: 786-0
DU-145 = system: DU-145
SF-268 = system: SF-268
MCF7 = system: MCF7
KM12 = system: KM12
BT-549 = system: BT-549
OVCAR-8 = system: OVCAR-8
HCT-15 = system: HCT-15
NCI-H522 = system: NCI-H522
SW-620 = system: SW-620
SK-MEL-28 = system: SK-MEL-28
SNB-19 = system: SNB-19
HCT-116 = system: HCT-116
NCI/ADR-RES = system: NCI/ADR-RES
TK-10 = system: TK-10
MDA-MB-435 = system: MDA-MB-435
HOP-62 = system: HOP-62
HT-29 = system: HT-29
T47D = system: T47D
NCI-H226 = system: NCI-H226

`N#Cc1ccc(Oc2nc3ccc(C(F)(F)F)cc3nc2-c2ccccc2)cc1` was tested, and the GI50 (SK-OV-3) was 12.5 µM (inactive), the GI50 (A498) was 15.7 µM (inactive) and the GI50 (UO-31) was 17.2 µM (inactive). For the same molecule, the GI50 (A549) was 16.7 µM (inactive), the GI50 (NCI-H23) was 16.5 µM (inactive) and the GI50 (LOX IMVI) was 27.2 µM (inactive). The GI50 (MDA-MB-231) was 14.5 µM (inactive), the GI50 (SK-MEL-5) was 19.7 µM (inactive) and the GI50 (OVCAR-5) was 13.4 µM (inactive). The GI50 (SK-MEL-2) was 19.5 µM (inactive), the GI50 (SR) was 2.77 µM (inactive) and the GI50 (Hs-578T) was 20.6 µM (inactive). The GI50 (K562) was 22.1 µM (inactive), the GI50 (NCI-H460) was 17.6 µM (inactive) and the GI50 (CCRF-CEM) was 20.4 µM (inactive). For the same molecule, the GI50 (COLO 205) was 21.5 µM (inactive), the GI50 (PC-3) was 14 µM (inactive) and the GI50 (SNB-75) was 14.1 µM (inactive). The GI50 (HCC 2998) was 17 µM (inactive), the GI50 (OVCAR-3) was 21.8 µM (inactive) and the GI50 (MDA-N) was 23 µM (inactive). The GI50 (MOLT-4) was 20 µM (inactive), the GI50 (ACHN) was 15.1 µM (inactive) and the GI50 (UACC-62) was 32.6 µM (inactive). The GI50 (Malme-3M) was 17.8 µM (inactive), the GI50 (U-251) was 17.2 µM (inactive) and the GI50 (HOP-92) was 12.6 µM (inactive). The GI50 (CAKI-1) was 22.6 µM (inactive), the GI50 (EKVX) was 14.3 µM (inactive) and the GI50 (HL-60) was 20.1 µM (inactive). The GI50 (SN12C) was 20.6 µM (inactive), the GI50 (SF-539) was 29.8 µM (inactive) and the GI50 (OVCAR-4) was 16.2 µM (inactive). For the same molecule, the GI50 (UACC-257) was 21.8 µM (inactive), the GI50 (RXF 393) was 26.4 µM (inactive) and the GI50 (M14) was 16.1 µM (inactive). The GI50 (IGROV-1) was 18.8 µM (inactive), the GI50 (SF-295) was 24.8 µM (inactive) and the GI50 (786-0) was 17.1 µM (inactive). The GI50 (DU-145) was 17.8 µM (inactive), the GI50 (SF-268) was 24.9 µM (inactive) and the GI50 (MCF7) was 20.4 µM (inactive). For the same molecule, the GI50 (KM12) was 20.5 µM (inactive), the GI50 (BT-549) was 34.4 µM (inactive) and the GI50 (OVCAR-8) was 14.9 µM (inactive). For the same molecule, the GI50 (HCT-15) was 14.9 µM, the GI50 (NCI-H522) was 15.6 µM (inactive) and the GI50 (SW-620) was 21.3 µM (inactive). For the same molecule, the GI50 (SK-MEL-28) was 16.6 µM (inactive), the GI50 (SNB-19) was 21.8 µM (inactive) and the GI50 (HCT-116) was 15.3 µM (inactive). The GI50 (NCI/ADR-RES) was 16.9 µM (inactive), the GI50 (TK-10) was 19.5 µM (inactive) and the GI50 (MDA-MB-435) was 17.7 µM (inactive). For the same molecule, the GI50 (HOP-62) was 20.3 µM (inactive), the GI50 (HT-29) was 16.7 µM (inactive) and the GI50 (T47D) was 16.7 µM (inactive).

In the case of `CC(=O)O[C@H]1CC[C@@]2(C)C(=CC[C@@H]3[C@@H]2CC[C@]2(C)c4c(C)n[nH]c4C[C@@H]32)C1`, the GI50 (SK-OV-3) is reported as 26.9 µM (inactive), the GI50 (A498) is reported as 20.3 µM (inactive) and the GI50 (UO-31) is reported as 17.7 µM (inactive). For the same molecule, the GI50 (A549) was 14.2 µM (inactive), the GI50 (NCI-H23) was 14.1 µM (inactive) and the GI50 (LOX IMVI) was 31.5 µM (inactive). The GI50 (MDA-MB-231) was 21.1 µM (inactive), the GI50 (SK-MEL-5) was 13.4 µM (inactive) and the GI50 (OVCAR-5) was 14.9 µM (inactive). The GI50 (SR) was 22.3 µM (inactive), the GI50 (Hs-578T) was 17.6 µM (inactive) and the GI50 (K562) was 2.54 µM (inactive). For the same molecule, the GI50 (NCI-H460) was 15.6 µM (inactive), the GI50 (CCRF-CEM) was 4.97 µM (inactive) and the GI50 (COLO 205) was 14.7 µM (inactive). The GI50 (PC-3) was 17.3 µM (inactive), the GI50 (SNB-75) was 12.2 µM (inactive) and the GI50 (HCC 2998) was 18.5 µM (inactive). The GI50 (OVCAR-3) was 12.2 µM (inactive), the GI50 (MDA-N) was 20.1 µM (inactive) and the GI50 (MOLT-4) was 11.7 µM (inactive). The GI50 (ACHN) was 17.9 µM (inactive), the GI50 (UACC-62) was 12 µM (inactive) and the GI50 (Malme-3M) was 3.75 µM (inactive). For the same molecule, the GI50 (U-251) was 15.3 µM (inactive), the GI50 (HOP-92) was 21 µM (inactive) and the GI50 (CAKI-1) was 16.8 µM (inactive). For the same molecule, the GI50 (EKVX) was 17.9 µM (inactive), the GI50 (HL-60) was 10.1 µM (inactive) and the GI50 (SN12C) was 19.4 µM (inactive). For the same molecule, the GI50 (OVCAR-4) was 15.7 µM (inactive), the GI50 (UACC-257) was 16.7 µM (inactive) and the GI50 (RXF 393) was 11.4 µM (inactive). For the same molecule, the GI50 (M14) was 16 µM (inactive), the GI50 (IGROV-1) was 20.8 µM (inactive) and the GI50 (SF-295) was 20.4 µM (inactive). The GI50 (786-0) was 17.4 µM (inactive), the GI50 (DU-145) was 14.2 µM (inactive) and the GI50 (SF-268) was 23.4 µM (inactive). For the same molecule, the GI50 (MCF7) was 11.5 µM (inactive), the GI50 (KM12) was 15.3 µM (inactive) and the GI50 (BT-549) was 15.2 µM (inactive). The GI50 (OVCAR-8) was 31 µM (inactive), the GI50 (HCT-15) was 15 µM and the GI50 (NCI-H522) was 6.92 µM (inactive). The GI50 (SW-620) was 16.9 µM (inactive), the GI50 (SK-MEL-28) was 20.7 µM (inactive) and the GI50 (SNB-19) was 19.5 µM (inactive). For the same molecule, the GI50 (HCT-116) was 11.2 µM (inactive), the GI50 (NCI/ADR-RES) was 26.1 µM (inactive) and the GI50 (TK-10) was 19.2 µM (inactive). For the same molecule, the GI50 (MDA-MB-435) was 16 µM (inactive), the GI50 (HOP-62) was 21.1 µM (inactive) and the GI50 (HT-29) was 10.3 µM (inactive). For the same molecule, the GI50 (T47D) was 9.53 µM (inactive) and the GI50 (NCI-H226) was 16.5 µM (inactive).
